In patent US6391280B1, “J chain polypeptide targeting molecule linked to an imaging agent” (Epicyte Pharmaceutical, Inc., priority 1997, dated 2002):
Marks after values point to notes of the source that are not given here.

Test: Molar Relaxivities 1/T1 of Paramagnetic Compounds
Format: physicochemical
Details: in water at 10.7 MHz, 37° C. (values marked *)

Row | Relaxation rate, molar relaxivity 1/T1 | SMILES
1 | 5.05* (mMs)^−1 | O=C([O-])CN(CCN(CC(=O)[O-])CC(=O)O)CCN(CC(=O)[O-])CC(=O)O.[Gd+3] [GDDTP A]
2 | 14.67* (mMs)^−1 | [Cl][Gd]([Cl])[Cl] [GdCl]
3 | 9.32* (mMs)^−1 | [Cl][Mn][Cl] [MnCl2]
4 | 10.39* (mMs)^−1 | O=S(=O)([O-])c1ccc(-c2c3nc(c(-c4ccc(S(=O)(=O)[O-])cc4)c4ccc([n-]4)c(-c4ccc(S(=O)(=O)[O-])cc4)c4ccc([n-]4)c(-c4ccc(S(=O)(=O)[O-])cc4)c4nc2C=C4)C=C3)cc1.[Mn+3] [MnTPPS4]
